ChEMBL document CHEMBL1201862, “PubChem BioAssay data set” (2004)
Activity calls are given as the source filed them.

Columns and labels:
[1] = biological target: T1, Protein skinhead-1 (Caenorhabditis elegans, UniProt P34707); type: functional
T1 sequence (P34707 whole entry): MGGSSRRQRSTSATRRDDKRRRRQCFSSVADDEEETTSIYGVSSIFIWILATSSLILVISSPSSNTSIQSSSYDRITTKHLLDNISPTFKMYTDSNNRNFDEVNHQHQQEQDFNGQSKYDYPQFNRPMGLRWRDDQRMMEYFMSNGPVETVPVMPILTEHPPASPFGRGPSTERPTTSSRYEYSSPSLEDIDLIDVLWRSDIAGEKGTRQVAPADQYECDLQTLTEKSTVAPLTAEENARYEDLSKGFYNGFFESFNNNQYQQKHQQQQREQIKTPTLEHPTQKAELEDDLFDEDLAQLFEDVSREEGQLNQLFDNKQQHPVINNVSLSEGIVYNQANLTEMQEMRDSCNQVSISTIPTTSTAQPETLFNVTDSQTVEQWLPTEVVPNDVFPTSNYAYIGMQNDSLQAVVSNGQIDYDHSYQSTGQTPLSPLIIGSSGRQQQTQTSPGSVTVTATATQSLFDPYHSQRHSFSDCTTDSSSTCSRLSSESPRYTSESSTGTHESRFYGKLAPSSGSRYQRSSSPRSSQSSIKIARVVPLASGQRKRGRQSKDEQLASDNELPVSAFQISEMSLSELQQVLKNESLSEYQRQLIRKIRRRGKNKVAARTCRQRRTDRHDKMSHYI

[2] = biological target: T2, Cytochrome P450 1A2 (Homo sapiens, UniProt P05177);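 note: PubChem cytochrome P450 panel assay, CYP1A2 panel member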
T2 sequence (P05177 whole entry): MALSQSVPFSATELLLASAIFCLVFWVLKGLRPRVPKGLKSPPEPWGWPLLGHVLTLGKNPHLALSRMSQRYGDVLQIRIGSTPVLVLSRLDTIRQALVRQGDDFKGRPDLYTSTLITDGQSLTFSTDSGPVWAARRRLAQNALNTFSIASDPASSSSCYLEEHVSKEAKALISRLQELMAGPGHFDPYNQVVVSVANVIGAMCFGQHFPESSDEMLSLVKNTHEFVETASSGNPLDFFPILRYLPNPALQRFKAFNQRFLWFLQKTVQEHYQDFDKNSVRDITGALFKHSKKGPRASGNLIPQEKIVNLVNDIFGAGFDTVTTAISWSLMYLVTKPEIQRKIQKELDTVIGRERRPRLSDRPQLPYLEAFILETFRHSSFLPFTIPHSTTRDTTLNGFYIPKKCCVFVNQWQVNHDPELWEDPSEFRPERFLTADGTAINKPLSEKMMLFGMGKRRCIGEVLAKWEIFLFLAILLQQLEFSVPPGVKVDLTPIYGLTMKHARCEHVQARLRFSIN

[3] = biological target: Cytochrome P450 2C9 (Homo sapiens, UniProt P11712)
[4] = biological target: Cytochrome P450 2C19 (Homo sapiens, UniProt P33261); assay: Cytochrome panel assay with activity outcomes. Panel member name: p450-cyp2c19 Compounds with AC50 equal or less than 10 uM are considered active; type: functional
[5] = tested on: H4; assay: Luminescence Cell-Based Dose Response HTS to Identify Activators of 5'UTR Stem-Loop Driven Prion Protein mRNA Translation in H4 Neuroglioblastoma Cells. [Related pubchem assays: 1829 (Project Summary), 1814 (Primary HTS)]; type: functional; conditions: Homo sapiens
[6] = Luminescence Cell-Based Dose Response HTS to Identify Activators of Luciferase Translation or Activity in H4 […] Cells. [Related pubchem assays: 1829 (Project Summary), 1814 (Primary HTS)]; type: functional
[7] = Luminescence Cell-Based Dose Confirmation HTS to Identify Activators of 5'UTR Stem-Loop Driven Alpha-Synuclein mRNA Translation in H4 Neuroglioblastoma Cells. [Related pubchem assays: 1829 (Project Summary), 1814 (Primary HTS)]; type: functional
[8] = biological target: Paired box protein Pax-8 (Homo sapiens, UniProt Q06710); assay: inhibitors of PAX8-driven TPO luciferase reporter, dose response, RMG-I cells, cherry-pick (AID 687027); type: functional, cell-based;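 note: luciferase reporter driven by Pax8 target thyroperoxidase promoter measured by SteadyGlo luminescence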
[9] = biological target: Cytochrome P450 3A4 (Homo sapiens, UniProt P08684);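 note: CYP3A4 tested as one member of a cytochrome P450 panel screen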
[10] = biological target: T3, Streptokinase A (Streptococcus pyogenes serotype M1, UniProt P10520); assay: S. pyogenes streptokinase expression inhibitors, potency, dose response, plasminogen activation absorbance, OD405 (AID 1914); type: functional, Streptococcus pyogenes M1 GAS;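 note: secreted streptokinase activity via plasminogen activation per viability signal from cell pellet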
T3 sequence (P10520 whole entry): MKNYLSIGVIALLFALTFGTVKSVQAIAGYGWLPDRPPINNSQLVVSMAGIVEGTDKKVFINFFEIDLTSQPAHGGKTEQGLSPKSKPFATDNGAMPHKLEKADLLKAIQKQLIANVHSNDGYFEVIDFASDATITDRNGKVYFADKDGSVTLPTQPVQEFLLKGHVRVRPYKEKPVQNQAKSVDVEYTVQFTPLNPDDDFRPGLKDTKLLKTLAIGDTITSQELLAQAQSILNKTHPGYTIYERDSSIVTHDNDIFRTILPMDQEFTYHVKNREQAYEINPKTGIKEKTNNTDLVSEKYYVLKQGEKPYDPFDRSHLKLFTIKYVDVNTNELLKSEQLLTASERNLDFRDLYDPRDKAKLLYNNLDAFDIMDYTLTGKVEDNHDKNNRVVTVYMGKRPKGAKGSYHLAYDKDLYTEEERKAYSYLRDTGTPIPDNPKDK

[11] = tested on: Streptococcus; assay: Group A Streptococcus viability loss, dose response, counter-screen for streptokinase expression inhibitor project, luminescence, BacTiterGlo (AID 1915); type: functional, organism-based;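 note: potency for reduction of bacterial viability or growth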
[12] = tested on: Streptococcus sp. 'group A'; assay: growth inhibition of control SK(-) GAS strain, dose response, counter-screen for streptokinase expression inhibitor project, luminescence, kanamycin, BacTiterGlo, confirmation (AID 1900); type: functional, organism-based

Cytochrome P450 2C9, sequence (P11712 whole entry): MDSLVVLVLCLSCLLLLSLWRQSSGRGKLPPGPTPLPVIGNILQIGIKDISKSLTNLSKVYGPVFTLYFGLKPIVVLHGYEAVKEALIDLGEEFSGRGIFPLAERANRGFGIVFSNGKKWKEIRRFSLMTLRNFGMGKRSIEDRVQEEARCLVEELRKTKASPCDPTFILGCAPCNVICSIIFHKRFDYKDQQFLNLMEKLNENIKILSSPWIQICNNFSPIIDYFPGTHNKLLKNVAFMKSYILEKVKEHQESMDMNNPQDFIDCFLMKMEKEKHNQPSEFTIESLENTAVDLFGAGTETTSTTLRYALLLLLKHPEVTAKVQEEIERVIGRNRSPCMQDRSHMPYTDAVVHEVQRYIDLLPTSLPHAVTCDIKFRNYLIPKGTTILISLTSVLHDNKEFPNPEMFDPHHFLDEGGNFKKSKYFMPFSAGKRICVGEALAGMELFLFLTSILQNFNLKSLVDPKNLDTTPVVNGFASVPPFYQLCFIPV
Cytochrome P450 3A4, sequence (P08684 whole entry): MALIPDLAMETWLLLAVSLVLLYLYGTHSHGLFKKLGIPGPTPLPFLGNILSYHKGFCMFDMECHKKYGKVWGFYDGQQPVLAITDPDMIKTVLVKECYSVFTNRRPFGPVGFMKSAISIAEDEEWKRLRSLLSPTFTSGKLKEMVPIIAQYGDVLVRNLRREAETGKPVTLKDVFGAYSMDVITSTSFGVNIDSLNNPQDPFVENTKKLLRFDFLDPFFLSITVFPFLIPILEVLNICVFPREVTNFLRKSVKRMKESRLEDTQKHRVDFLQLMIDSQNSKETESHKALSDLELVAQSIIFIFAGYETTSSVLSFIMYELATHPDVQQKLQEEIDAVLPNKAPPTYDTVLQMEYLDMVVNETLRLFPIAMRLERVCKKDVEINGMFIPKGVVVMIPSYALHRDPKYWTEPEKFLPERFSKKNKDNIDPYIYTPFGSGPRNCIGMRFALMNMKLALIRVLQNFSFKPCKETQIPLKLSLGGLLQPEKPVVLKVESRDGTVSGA
Cytochrome P450 2C19, sequence (P33261 whole entry): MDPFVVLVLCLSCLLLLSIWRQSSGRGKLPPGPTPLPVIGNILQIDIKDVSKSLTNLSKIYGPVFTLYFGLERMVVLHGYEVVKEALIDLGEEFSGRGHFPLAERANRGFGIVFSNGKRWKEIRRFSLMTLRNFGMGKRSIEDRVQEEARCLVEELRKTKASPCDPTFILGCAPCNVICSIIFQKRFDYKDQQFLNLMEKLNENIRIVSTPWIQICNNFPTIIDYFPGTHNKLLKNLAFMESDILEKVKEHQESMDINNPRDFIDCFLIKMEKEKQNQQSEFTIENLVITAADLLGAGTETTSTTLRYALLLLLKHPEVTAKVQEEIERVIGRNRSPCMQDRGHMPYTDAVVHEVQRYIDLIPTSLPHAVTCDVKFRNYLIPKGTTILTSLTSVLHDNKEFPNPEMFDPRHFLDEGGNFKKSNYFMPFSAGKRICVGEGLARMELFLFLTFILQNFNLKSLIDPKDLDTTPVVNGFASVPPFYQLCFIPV
Paired box protein Pax-8, sequence (Q06710 whole entry): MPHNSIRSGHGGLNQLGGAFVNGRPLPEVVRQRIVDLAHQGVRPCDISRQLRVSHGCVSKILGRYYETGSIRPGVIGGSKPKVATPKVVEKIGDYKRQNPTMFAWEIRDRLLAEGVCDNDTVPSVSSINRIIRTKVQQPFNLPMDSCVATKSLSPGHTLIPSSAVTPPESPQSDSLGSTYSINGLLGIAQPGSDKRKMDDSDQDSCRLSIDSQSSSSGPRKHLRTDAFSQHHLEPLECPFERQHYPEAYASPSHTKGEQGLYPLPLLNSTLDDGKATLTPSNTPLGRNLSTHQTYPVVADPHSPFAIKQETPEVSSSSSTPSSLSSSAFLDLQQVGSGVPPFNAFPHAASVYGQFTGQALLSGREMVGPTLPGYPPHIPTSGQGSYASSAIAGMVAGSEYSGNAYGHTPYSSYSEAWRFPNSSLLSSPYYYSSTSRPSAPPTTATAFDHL

Structure (SMILES): COC(=O)c1ccc(CC2(C)C(=O)Nc3ccc(-c4cccc(C(F)(F)F)c4)cc32)o1 (stereo not given)
- IC50 [1]: 79.3 µM (inactive)

Structure (SMILES): CCCCOc1ccccc1N
- AC50 [2]: 39.8 µM (inconclusive)
- AC50 [3]: 39.8 µM (inconclusive)

Structure (SMILES): CN1CCc2nc(N)nc(-c3nc(N)nc4c3CN(C)CC4)c2C1
- AC50 [4]: inconclusive

Structure (SMILES): O=C(/C=C\Nc1ccc(Br)cc1)c1cccnc1
- IC50 [1]: 71.4 µM (inactive)

Structure (SMILES): C=CCSc1n[nH]c(-c2ccccc2)n1
- EC50 [5]: 75.3 µM (active)
- EC50 [6]: 8.06 µM (active)
- EC50 [7]: 9.22 µM (active)

Structure (SMILES): COc1ccc(-n2c(=O)c(-c3ccc(Cl)cc3)nc3cncnc32)cc1
- AC50 [2]: 5.01 µM (inconclusive)

Structure (SMILES): COC(=O)C1=C(c2ccc(F)cc2OCc2ccccc2)C[C@@H]2CC[C@H]1N2C(=O)NCc1ccc2[nH]ccc2c1
- AC50 [8]: 18.2 µM (active)

Structure (SMILES): Cc1ccc(F)c(C2C3C=CCC(c4cccc(-c5ccc(N(C)C)cc5)c4)C3C(=O)N2Cc2ccccc2)c1 (stereo not given)
- IC50 [1]: > 100 µM (inactive)

Structure (SMILES): Cc1ccccc1-c1cncnc1N1CCN(C)CC1
- AC50 [2]: 15.8 µM (inconclusive)
- AC50 ([4]; read-out: AC50): 39.8 µM (inconclusive)

Structure (SMILES): C/C(=C\C(=O)c1ccc(Br)cc1)NCc1ccccc1
- EC50 [5]: 90.3 µM (active)
- EC50 [6]: 9.58 µM (active)
- EC50 [7]: > 120 µM (not active)

Structure (SMILES): CC(C)(C)COS(=O)OCC(C)(C)C
- AC50 [4]: inconclusive

Structure (SMILES): N#Cc1c2c(c(-n3cnc4ccccc43)n3c1nc1ccccc13)CCC2
- AC50 [2]: 25.1 µM (inconclusive)
- AC50 [3]: 10 µM (inconclusive)
- AC50 [9]: 3.16 µM (inconclusive)

Structure (SMILES): Cc1cc(NC(=O)COc2cccc(Oc3ccccc3)c2)no1
- EC50 [5]: > 120 µM (not active)
- EC50 [6]: > 120 µM (not active)
- EC50 [7]: > 120 µM (not active)

Structure (SMILES): COc1ccc(CNC(=O)CN(CC2CCCO2)C(=O)CNS(=O)(=O)c2ccccc2)cc1 (stereo not given)
- AC50 [3]: 22.4 µM (inconclusive)
- AC50 [9]: 3.98 µM (inconclusive)

Structure (SMILES): CCOC(=O)C1=C(N)Oc2ccc(Br)cc2[C@@H]1[C@@H](C#N)C(=O)OCC
- AC50 ([4]; read-out: AC50): 25.1 µM (inconclusive)

Structure (SMILES): N#CCCn1c(=O)c(-c2cc(F)cc(F)c2)nc2cnc(Nc3ccccc3)nc21
- AC50 [2]: 3.16 µM (inconclusive)

Structure (SMILES): Cn1cnc([N+](=O)[O-])c1SCC(=O)O
- AC50 [4]: inconclusive

Structure (SMILES): O=C1CC(N2CCN(C(c3ccccc3)c3ccccc3)CC2)C(=O)N1Cc1ccc(N2CCCC2=O)cc1 (stereo not given)
- AC50 ([4]; read-out: AC50): 5.01 µM (inconclusive)
- AC50 [9]: 22.4 µM (inconclusive)

Structure (SMILES): CCOc1cccc(CNCCNC(=O)c2nonc2N)c1
- AC50 [2]: 39.8 µM (inconclusive)
- AC50 [9]: 5.01 µM (inconclusive)

Structure (SMILES): O=S(=O)(NC1CCCCC1N1CCN(c2ccccc2F)CC1)c1ccccc1 (stereo not given)
- AC50 [8]: 23.1 µM (active)

Structure (SMILES): CC(NC(=O)c1cc(COc2ccccc2)on1)c1nccs1 (stereo not given)
- IC50 [1]: > 100 µM (inactive)

Structure (SMILES): COc1ccccc1NC(=O)CSc1nnc(-c2ccncc2)o1
- IC50 [1]: > 100 µM (inactive)

Structure (SMILES): COc1cc(C2C3=C(COC3=O)Oc3cc4c(cc32)OCO4)cc(OC)c1O (stereo not given)
- AC50 [8]: 1.74 µM (active)

Structure (SMILES): N#Cc1c(NC(=O)CCC(=O)O)ccc2ccccc12
- AC50 [4]: inconclusive

Structure (SMILES): COc1ccc(NC(=O)CSc2n[nH]c(N)n2)cc1OC
- EC50 [5]: > 120 µM (not active)
- EC50 [6]: > 120 µM (not active)
- EC50 [7]: > 120 µM (not active)

Structure (SMILES): CC(=O)N1CCC2(CC1)CN(C(=O)Nc1cccc(C#N)c1)C2
- AC50 [2]: 12.6 µM (inconclusive)

Structure (SMILES): CCCSc1cc(N2CCCC2)nc(-c2ccccc2)n1
- EC50 [10]: > 150 µM (not active)
- EC50 [11]: > 150 µM (not active)
- AC50 [3]: 2 µM (inconclusive)
- EC50 [12]: 35 µM (active)
- AC50 ([4]; read-out: AC50): 39.8 µM (inconclusive)

Structure (SMILES): Cc1ccc2c[nH]nc2c1NC(=S)NC(=O)c1ccccc1
- AC50 ([4]; read-out: AC50): 11.2 µM (inconclusive)

Structure (SMILES): c1ccc(N2OCC3Cn4c(nc5ccccc54)C32)cc1 (stereo not given)
- EC50 [5]: 44.2 µM (active)
- EC50 [6]: 8.69 µM (active)
- EC50 [7]: 30.3 µM (active)

Structure (SMILES): Cc1oc(-c2cccs2)[n+]([O-])c1C
- AC50 [2]: 25.1 µM (inconclusive)

Structure (SMILES): Oc1ccc(C2C(c3ccccc3)=NN=C(c3ccccc3F)N2O)c(O)c1 (stereo not given)
- EC50 [5]: > 120 µM (not active)
- EC50 [6]: 72.3 µM (active)
- EC50 [7]: 95.8 µM (active)

Structure (SMILES): COc1cc(-c2nnc(COC(=O)c3c4c(nc5ccccc35)CCCC4)o2)cc(OC)c1OC
- AC50 [2]: 14.1 µM (inconclusive)

Structure (SMILES): Nc1nc(SCc2ccccc2)c2ncn(Cc3ccccc3)c2n1
- AC50 [2]: 0.251 µM (inconclusive)
- AC50 [3]: 3.16 µM (inconclusive)
- AC50 [9]: 3.98 µM (inconclusive)

Structure (SMILES): O=c1cnc2cnc(Oc3ccccc3)nc2n1C1CC1
- AC50 ([4]; read-out: AC50): 39.8 µM (inconclusive)

Structure (SMILES): CCOc1ccc(/C=C2\C(=O)c3ccccc3OC2c2ccccc2)cc1 (stereo not given)
- AC50 [2]: 12.6 µM (inconclusive)
- AC50 [3]: 10 µM (inconclusive)

Structure (SMILES): CCC[C@@H]1C[C@@]1(CCC)C(NC(=O)c1cccs1)c1ccc(Cl)cc1 (stereo not given in full)
- AC50 [2]: 10 µM (inconclusive)
- AC50 [3]: 5.01 µM (inconclusive)

Structure (SMILES): O=C1c2ccccc2CCc2ccc(Br)cc21
- IC50 [1]: 35.6 µM (active)

Structure (SMILES): Cc1cc(C(=O)CSC(=S)SC(C)(C)C)ccc1Cl
- AC50 [3]: 5.01 µM (inconclusive)
- AC50 [9]: 3.16 µM (inconclusive)

Structure (SMILES): Cn1c(S)nnc1Cc1c[nH]c2ccccc12
- IC50 [1]: > 100 µM (inactive)

Structure (SMILES): CC1(C(=O)NS(=O)(=O)c2cccs2)CCN1C(=O)Cc1ccc(-c2ccccc2)cc1 (stereo not given)
- IC50 [1]: > 100 µM (inactive)

Structure (SMILES): CCCc1nnc(NC(=O)c2cccs2)s1
- AC50 [3]: 12.6 µM (inconclusive)
- AC50 ([4]; read-out: AC50): 25.1 µM (inconclusive)
